# Tested on: human pancreatic stellate cells (PSCs)
# Experiment: Human PSCs incubated with metformin in vitro (immunofluorescence, Western blot)
# Assay type: cell-based
# Experimental: Following treatment, cells were collected for RNA and protein extraction in order to perform subsequent analysis of gene expression of cytokines and polarization markers, and for analysis of signaling and metabolic pathways. […] Cells were collected for protein extraction for analysis of the activation of fibrosis-related pathways. […] The cells were fixed with 4% paraformaldehyde and blocked with 5% normal donkey serum for 1 h. They were incubated with the designated primary antibodies overnight at 4° C. then for 2 h with the appropriate secondary antibodies at RT. PBS was used for all washes and the stained samples were mounted with Prolong Gold with DAPI. Images were acquired using a confocal microscope. The antibodies used and image acquisition settings are described below. Both cell types were grown in Dulbecco's modified Eagle's medium (Sigma, St. Louis, Mo.) supplemented with 5% (v/v) heat inactivated fetal bovine serum (FBS; Sigma), 100 units/ml penicillin and streptomycin. Cells were cultured at 37° C. in a humidified atmosphere including 5% CO2.
# Each tumor sample was homogenized directly in lysis buffer for protein extraction. 20 ug of denatured protein per sample was loaded on 7%, 10% and 12% SDS-polyacrylamide gels. Antibodies used: phospho-p38 MAPKT^180/Y182 and p38; phospho-JNK (SAPK/JNK)^Thr183/Tyr185 and JNK; phospho-AKT^Ser473 and AKT, phospho-ERK(p44/42 MAPK)^T202/Y204 and ERK; phospho-NF-κB^Ser536 and NK-κB; p65^Ser536; phospho-Smad2^Ser465/467 and Smad2; phospho-IGF-I Receptor β^Tyr1135 and IGF; Phospho-IRS-1^Ser612 and IRS; IR; phpspho-stat3^Tyr705 and stat3; Phospho-AMPKα^Thr172 and Ampkα; phospho-Ampkβ^Ser108 and Ampk; phospho-ACC^Ser79 and ACC; Phospho-PDGF Receptor β^Tyr751 and PDGF Receptor β and snail, c-cadherin and vimentin, TGF-β, β-catenin, twist, LC3B. All antibodies listed above were obtained from Cell Signaling Technology (Beverly, Mass.), and diluted 1:1000 with the exception of phospho-JNK (SAPK/JNK)^Thr183/Tyr185, Phospho-NF-κB p65^Ser536, phospho-Smad2^Ser465/467, phospho-IGF-I Receptor β^Tyr1135, Cleaved caspase-3, Phospho-IRS-1^Ser612. Other antibodies used were: αSMA and phospho-Insulin Receptor^Y972 (1:1000 and 1:500, Abcam, Mass.); col-1 (1:1000); MMP-9 and MMP-2 (1:500 and 1:200, EMD Millipore-Billerica, Mass.), AT1 (1:1000, LifeSpan BioSciences Inc, WA), ZEB1 (1:1000, Novus Biologicals, CO), and β-actin (1:5000, Sigma, Mo.). Quantification of protein expression relative to total receptor or β-actin was obtained using Image J software.
smiles,measurement,setting,value
"CN(C)C(=N)N=C(N)N [metformin, 3-(diaminomethylidene)-1,1-dimethylguanidine]",protein levels of MMP9 in PSCs,"metformin 0, 0.1, 1 and 10 mM, Western blot",decreased protein levels of MMP9
same,expression of HA in PSCs,"metformin 1 mM, 48 h",decreased
same,expression of collagen-I in PSCs,"metformin 1 mM, 48 h",decreased
same,"expression of AT1, TGF-β and downstream signaling via SMAD-2, PDGF-I3","metformin 0.1-1mM, Western blot",reduced expression
same,"canonical signaling pathways ERK, p38 and STAT3",relatively higher doses (1-10 mM),affected canonical signaling pathways

# Reference: patent US20180064662A1 (THE GENERAL HOSPITAL CORPORATION, priority 2015, published 2018)
